The kinase profiling compilation of Christmann-Franck et al. (2016)

How the values were obtained:
Assay in all cases: KINOMEscan competition binding
Settings in all cases: compound 10.0 µM
[1] = molecular target: ACVR1 (human) (UniProt Q04771)
[2] = molecular target: ACVRL1 (human) (UniProt P37023)
[3] = molecular target: AKT1 (human) (UniProt P31749)
[4] = molecular target: AXL (human) (UniProt P30530)
[5] = molecular target: CAMK4 (human) (UniProt Q16566)
[6] = molecular target: CAMKK2 (human) (UniProt Q96RR4)
[7] = molecular target: CDK11B (human) (UniProt P21127)
[8] = molecular target: CDK14 (human) (UniProt O94921)
[9] = molecular target: CLK2 (human) (UniProt P49760)
CLK2 (human), sequence (P49760 whole entry, looked up): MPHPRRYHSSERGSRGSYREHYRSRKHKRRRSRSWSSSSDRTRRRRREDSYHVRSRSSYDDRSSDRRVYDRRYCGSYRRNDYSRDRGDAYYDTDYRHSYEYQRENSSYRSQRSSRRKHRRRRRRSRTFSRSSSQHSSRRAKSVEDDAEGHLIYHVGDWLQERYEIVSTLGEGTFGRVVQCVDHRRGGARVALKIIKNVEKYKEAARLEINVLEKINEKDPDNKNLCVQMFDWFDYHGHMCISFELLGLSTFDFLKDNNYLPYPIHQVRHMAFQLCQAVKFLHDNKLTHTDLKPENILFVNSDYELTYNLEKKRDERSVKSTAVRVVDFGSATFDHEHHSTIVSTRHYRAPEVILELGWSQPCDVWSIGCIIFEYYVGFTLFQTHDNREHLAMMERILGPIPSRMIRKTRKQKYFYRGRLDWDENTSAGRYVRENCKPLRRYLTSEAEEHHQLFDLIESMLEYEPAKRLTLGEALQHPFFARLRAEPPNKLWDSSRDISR

[10] = molecular target: CLK3 (human) (UniProt P49761)
[11] = molecular target: CSNK1E (human) (UniProt P49674)
[12] = molecular target: CSNK1G2 (human) (UniProt P78368)
[13] = molecular target: DYRK1A (human) (UniProt Q13627)
[14] = molecular target: EPHA2 (human) (UniProt P29317)
[15] = molecular target: EPHA4 (human) (UniProt P54764)
[16] = molecular target: EPHB3 (human) (UniProt P54753)
[17] = molecular target: ERBB2 (human) (UniProt P04626)
[18] = molecular target: GRK1 (human) (UniProt Q15835)
[19] = molecular target: HCK (human) (UniProt P08631)
HCK (human), sequence (P08631 whole entry, looked up): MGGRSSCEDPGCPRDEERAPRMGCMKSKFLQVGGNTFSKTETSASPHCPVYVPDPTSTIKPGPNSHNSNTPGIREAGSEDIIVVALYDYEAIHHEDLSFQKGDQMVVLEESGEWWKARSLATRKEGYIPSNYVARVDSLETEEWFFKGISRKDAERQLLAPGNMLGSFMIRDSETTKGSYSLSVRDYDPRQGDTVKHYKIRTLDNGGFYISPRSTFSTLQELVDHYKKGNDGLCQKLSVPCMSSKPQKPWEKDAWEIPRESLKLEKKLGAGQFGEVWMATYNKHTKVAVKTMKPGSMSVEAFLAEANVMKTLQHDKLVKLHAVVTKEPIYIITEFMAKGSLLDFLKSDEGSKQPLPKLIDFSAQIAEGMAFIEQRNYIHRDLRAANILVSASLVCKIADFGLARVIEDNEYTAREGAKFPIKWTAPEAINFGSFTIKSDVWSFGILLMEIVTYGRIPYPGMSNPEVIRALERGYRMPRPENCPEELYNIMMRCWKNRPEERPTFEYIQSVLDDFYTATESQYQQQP

[20] = molecular target: HIPK2 (human) (UniProt Q9H2X6)
[21] = molecular target: ITK (human) (UniProt Q08881)
[22] = molecular target: LTK (human) (UniProt P29376)
LTK (human), sequence (P29376 whole entry, looked up): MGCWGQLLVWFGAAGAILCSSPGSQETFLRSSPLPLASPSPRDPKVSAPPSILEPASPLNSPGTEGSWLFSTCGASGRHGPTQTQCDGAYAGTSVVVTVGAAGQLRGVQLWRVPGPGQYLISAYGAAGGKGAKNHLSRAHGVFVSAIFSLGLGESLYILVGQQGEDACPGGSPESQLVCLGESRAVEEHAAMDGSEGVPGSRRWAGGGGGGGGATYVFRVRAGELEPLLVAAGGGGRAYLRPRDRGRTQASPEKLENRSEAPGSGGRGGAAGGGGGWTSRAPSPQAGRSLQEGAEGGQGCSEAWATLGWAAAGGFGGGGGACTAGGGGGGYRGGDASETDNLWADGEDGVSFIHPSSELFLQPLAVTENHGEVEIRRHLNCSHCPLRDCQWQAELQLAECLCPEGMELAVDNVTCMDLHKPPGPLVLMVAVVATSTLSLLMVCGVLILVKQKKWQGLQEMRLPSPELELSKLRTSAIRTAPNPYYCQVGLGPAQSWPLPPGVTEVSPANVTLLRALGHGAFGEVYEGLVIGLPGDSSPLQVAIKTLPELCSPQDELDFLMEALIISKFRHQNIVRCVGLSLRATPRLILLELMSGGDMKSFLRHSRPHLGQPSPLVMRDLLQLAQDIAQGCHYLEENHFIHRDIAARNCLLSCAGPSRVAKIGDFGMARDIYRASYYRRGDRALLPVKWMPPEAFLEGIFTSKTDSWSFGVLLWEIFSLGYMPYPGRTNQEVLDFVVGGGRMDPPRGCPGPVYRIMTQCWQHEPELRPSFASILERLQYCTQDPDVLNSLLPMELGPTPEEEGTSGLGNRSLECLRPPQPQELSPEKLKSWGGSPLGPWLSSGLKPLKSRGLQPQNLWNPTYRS

[23] = molecular target: MAP3K11 (human) (UniProt Q16584)
[24] = molecular target: MAP3K2 (human) (UniProt Q9Y2U5)
[25] = molecular target: MAP3K3 (human) (UniProt Q99759)
MAP3K3 (human), sequence (Q99759 whole entry, looked up): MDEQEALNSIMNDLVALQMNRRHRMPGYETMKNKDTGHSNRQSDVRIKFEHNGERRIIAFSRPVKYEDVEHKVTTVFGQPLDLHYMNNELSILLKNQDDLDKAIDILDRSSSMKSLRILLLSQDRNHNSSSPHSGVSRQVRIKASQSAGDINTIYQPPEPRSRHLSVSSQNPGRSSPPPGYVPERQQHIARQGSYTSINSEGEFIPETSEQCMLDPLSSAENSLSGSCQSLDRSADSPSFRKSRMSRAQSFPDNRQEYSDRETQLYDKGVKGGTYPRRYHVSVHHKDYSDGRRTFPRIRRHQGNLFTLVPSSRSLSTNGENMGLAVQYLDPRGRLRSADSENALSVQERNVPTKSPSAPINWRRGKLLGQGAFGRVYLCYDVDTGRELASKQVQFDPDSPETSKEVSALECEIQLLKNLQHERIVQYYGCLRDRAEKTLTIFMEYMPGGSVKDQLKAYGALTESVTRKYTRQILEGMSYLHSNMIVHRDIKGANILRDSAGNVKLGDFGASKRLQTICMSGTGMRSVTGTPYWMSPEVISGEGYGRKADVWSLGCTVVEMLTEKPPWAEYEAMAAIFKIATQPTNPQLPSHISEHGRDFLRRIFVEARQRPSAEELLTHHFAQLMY

[26] = molecular target: MAP4K5 (human) (UniProt Q9Y4K4)
[27] = molecular target: MAPK11 (human) (UniProt Q15759)
[28] = molecular target: MARK1 (human) (UniProt Q9P0L2)
[29] = molecular target: MARK4 (human) (UniProt Q96L34)
[30] = molecular target: MAST1 (human) (UniProt Q9Y2H9)
[31] = molecular target: MATK (human) (UniProt P42679)
MATK (human), sequence (P42679 whole entry, looked up): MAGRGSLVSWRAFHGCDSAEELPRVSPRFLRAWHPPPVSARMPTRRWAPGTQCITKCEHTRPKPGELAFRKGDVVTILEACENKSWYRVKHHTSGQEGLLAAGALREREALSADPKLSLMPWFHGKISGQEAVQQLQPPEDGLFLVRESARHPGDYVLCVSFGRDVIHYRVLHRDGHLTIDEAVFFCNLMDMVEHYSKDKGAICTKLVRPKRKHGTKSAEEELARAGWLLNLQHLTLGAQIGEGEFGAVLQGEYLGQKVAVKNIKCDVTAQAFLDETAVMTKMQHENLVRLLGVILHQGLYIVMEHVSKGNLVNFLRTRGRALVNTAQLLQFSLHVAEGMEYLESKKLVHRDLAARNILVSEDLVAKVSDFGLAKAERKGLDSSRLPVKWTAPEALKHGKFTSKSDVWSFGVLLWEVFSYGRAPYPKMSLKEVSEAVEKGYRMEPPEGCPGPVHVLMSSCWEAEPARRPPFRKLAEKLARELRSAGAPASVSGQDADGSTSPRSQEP

[32] = molecular target: NUAK2 (human) (UniProt Q9H093)
[33] = molecular target: PIK3CB (human) (UniProt P42338)
PIK3CB (human), sequence (P42338 whole entry, looked up): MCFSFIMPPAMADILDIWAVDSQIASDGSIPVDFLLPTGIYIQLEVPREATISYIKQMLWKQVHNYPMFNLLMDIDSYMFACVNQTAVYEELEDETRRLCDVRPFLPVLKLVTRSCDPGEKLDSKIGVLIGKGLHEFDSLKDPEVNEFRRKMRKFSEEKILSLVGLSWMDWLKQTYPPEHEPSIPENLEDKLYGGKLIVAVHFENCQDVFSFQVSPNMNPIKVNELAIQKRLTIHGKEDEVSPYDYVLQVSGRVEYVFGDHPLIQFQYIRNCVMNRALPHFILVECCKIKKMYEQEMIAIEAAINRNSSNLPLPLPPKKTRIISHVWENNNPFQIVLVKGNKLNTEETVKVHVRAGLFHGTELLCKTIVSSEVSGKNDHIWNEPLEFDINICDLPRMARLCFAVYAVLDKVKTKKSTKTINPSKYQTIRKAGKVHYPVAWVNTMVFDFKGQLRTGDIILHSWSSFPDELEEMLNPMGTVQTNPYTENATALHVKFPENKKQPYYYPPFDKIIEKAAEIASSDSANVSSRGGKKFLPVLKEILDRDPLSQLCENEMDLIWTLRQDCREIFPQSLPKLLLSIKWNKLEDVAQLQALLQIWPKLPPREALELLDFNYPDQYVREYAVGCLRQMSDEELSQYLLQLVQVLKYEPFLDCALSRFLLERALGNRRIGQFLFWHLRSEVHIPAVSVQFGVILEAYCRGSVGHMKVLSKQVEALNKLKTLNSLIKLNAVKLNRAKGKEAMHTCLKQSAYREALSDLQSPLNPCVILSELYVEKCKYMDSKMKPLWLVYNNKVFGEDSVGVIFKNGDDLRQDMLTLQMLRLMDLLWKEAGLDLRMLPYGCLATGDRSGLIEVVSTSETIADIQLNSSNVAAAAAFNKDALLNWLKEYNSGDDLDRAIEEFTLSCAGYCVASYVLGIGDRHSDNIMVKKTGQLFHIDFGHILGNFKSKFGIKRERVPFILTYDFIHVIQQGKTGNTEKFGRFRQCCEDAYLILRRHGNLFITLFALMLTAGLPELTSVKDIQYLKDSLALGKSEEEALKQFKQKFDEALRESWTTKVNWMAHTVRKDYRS

[34] = molecular target: PIM1 (human) (UniProt P11309)
[35] = molecular target: PRKCD (human) (UniProt Q05655)
[36] = molecular target: PTK2 (human) (UniProt Q05397)
[37] = molecular target: STK32C (human) (UniProt Q86UX6)
[38] = molecular target: STK36 (human) (UniProt Q9NRP7)
[39] = molecular target: TRPM6 (human) (UniProt Q9BX84)
[40] = molecular target: MYLK4 (human) (UniProt Q86YV6)
MYLK4 (human), sequence (Q86YV6 whole entry, looked up): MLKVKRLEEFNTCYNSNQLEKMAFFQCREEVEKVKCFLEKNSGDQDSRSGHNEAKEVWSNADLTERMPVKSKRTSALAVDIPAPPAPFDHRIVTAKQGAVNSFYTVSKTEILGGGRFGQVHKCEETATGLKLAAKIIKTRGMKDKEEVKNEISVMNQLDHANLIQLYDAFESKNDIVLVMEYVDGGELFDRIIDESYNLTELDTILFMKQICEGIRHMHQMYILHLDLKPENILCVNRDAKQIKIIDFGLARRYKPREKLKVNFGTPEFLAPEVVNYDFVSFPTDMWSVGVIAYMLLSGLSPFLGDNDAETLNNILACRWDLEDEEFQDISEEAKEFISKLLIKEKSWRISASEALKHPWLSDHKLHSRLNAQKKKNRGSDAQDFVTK

AKT1 (human), sequence (P31749 whole entry, looked up): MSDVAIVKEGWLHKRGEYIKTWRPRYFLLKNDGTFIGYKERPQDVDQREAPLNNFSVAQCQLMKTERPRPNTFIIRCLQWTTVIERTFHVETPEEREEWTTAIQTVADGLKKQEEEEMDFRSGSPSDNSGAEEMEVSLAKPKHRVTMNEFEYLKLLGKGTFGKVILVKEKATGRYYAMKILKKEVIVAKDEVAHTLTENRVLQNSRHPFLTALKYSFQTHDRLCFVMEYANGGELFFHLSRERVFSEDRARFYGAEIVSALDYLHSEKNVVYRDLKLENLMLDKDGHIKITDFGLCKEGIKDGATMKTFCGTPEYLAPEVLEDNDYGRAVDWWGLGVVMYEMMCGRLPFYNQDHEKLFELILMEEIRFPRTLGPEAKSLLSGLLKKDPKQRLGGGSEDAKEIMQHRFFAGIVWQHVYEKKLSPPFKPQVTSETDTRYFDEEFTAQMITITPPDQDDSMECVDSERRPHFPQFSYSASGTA

## CCN(CCO)CCCOc1ccc2c(Nc3cc(CC(=O)Nc4cccc(F)c4)[nH]n3)ncnc2c1
[1]
  kinase still bound, per cent of control: 81%
[2]
  kinase still bound, per cent of control: 97%
[3]
  kinase still bound, per cent of control: 96%
[4]
  kinase still bound, per cent of control: 1.4%
[5]
  kinase still bound, per cent of control: 100%
[6]
  kinase still bound, per cent of control: 100%
[7]
  kinase still bound, per cent of control: 6.5%
[8]
  kinase still bound, per cent of control: 100%
[9]
  kinase still bound, per cent of control: 67%
[10]
  kinase still bound, per cent of control: 100%
[11]
  kinase still bound, per cent of control: 100%
[12]
  kinase still bound, per cent of control: 76%
[13]
  kinase still bound, per cent of control: 100%
[14]
  kinase still bound, per cent of control: 76%
[15]
  kinase still bound, per cent of control: 92%
[16]
  kinase still bound, per cent of control: 100%
[17]
  kinase still bound, per cent of control: 13%
[18]
  kinase still bound, per cent of control: 100%
[19]
  kinase still bound, per cent of control: 31%
[20]
  kinase still bound, per cent of control: 31%
[21]
  kinase still bound, per cent of control: 96%
[22]
  kinase still bound, per cent of control: 17%
[23]
  kinase still bound, per cent of control: 100%
[24]
  kinase still bound, per cent of control: 87%
[25]
  kinase still bound, per cent of control: 70%
[26]
  kinase still bound, per cent of control: 0.95%
[27]
  kinase still bound, per cent of control: 100%
[28]
  kinase still bound, per cent of control: 98%
[29]
  kinase still bound, per cent of control: 100%
[30]
  kinase still bound, per cent of control: 90%
[31]
  kinase still bound, per cent of control: 71%
[32]
  kinase still bound, per cent of control: 54%
[33]
  kinase still bound, per cent of control: 81%
[34]
  kinase still bound, per cent of control: 100%
[35]
  kinase still bound, per cent of control: 91%
[36]
  kinase still bound, per cent of control: 64%
[37]
  kinase still bound, per cent of control: 78%
[38]
  kinase still bound, per cent of control: 37%
[39]
  kinase still bound, per cent of control: 100%

## CCc1nc(-c2cccc(C)c2)c(-c2ccnc(NC(=O)c3ccccc3)c2)s1
[1]
  kinase still bound, per cent of control: 9.6%
[2]
  kinase still bound, per cent of control: 85%
[3]
  kinase still bound, per cent of control: 100%
[4]
  kinase still bound, per cent of control: 80%
[5]
  kinase still bound, per cent of control: 99%
[6]
  kinase still bound, per cent of control: 100%
[7]
  kinase still bound, per cent of control: 88%
[8]
  kinase still bound, per cent of control: 99%
[9]
  kinase still bound, per cent of control: 61%
[10]
  kinase still bound, per cent of control: 78%
[11]
  kinase still bound, per cent of control: 0.05%
[12]
  kinase still bound, per cent of control: 19%
[13]
  kinase still bound, per cent of control: 69%
[14]
  kinase still bound, per cent of control: 66%
[15]
  kinase still bound, per cent of control: 94%
[16]
  kinase still bound, per cent of control: 81%
[17]
  kinase still bound, per cent of control: 43%
[18]
  kinase still bound, per cent of control: 100%
[19]
  kinase still bound, per cent of control: 31%
[20]
  kinase still bound, per cent of control: 100%
[21]
  kinase still bound, per cent of control: 100%
[22]
  kinase still bound, per cent of control: 26%
[23]
  kinase still bound, per cent of control: 70%
[24]
  kinase still bound, per cent of control: 100%
[25]
  kinase still bound, per cent of control: 92%
[27]
  kinase still bound, per cent of control: 0%
[28]
  kinase still bound, per cent of control: 100%
[29]
  kinase still bound, per cent of control: 100%
[30]
  kinase still bound, per cent of control: 100%
[31]
  kinase still bound, per cent of control: 100%
[40]
  kinase still bound, per cent of control: 100%
[32]
  kinase still bound, per cent of control: 100%
[33]
  kinase still bound, per cent of control: 95%
[34]
  kinase still bound, per cent of control: 87%
[35]
  kinase still bound, per cent of control: 50%
[36]
  kinase still bound, per cent of control: 96%
[37]
  kinase still bound, per cent of control: 35%
[38]
  kinase still bound, per cent of control: 4.8%
[39]
  kinase still bound, per cent of control: 100%

## CC(=O)c1c(C)c2cnc(Nc3ccc(N4CCNCC4)cn3)nc2n(C2CCCC2)c1=O
[1]
  kinase still bound, per cent of control: 80%
[3]
  kinase still bound, per cent of control: 92%
[4]
  kinase still bound, per cent of control: 16%
[6]
  kinase still bound, per cent of control: 20%
[7]
  kinase still bound, per cent of control: 93%
[8]
  kinase still bound, per cent of control: 5%
[9]
  kinase still bound, per cent of control: 0.35%
[10]
  kinase still bound, per cent of control: 55%
[11]
  kinase still bound, per cent of control: 16%
[12]
  kinase still bound, per cent of control: 92%
[13]
  kinase still bound, per cent of control: 0.9%
[14]
  kinase still bound, per cent of control: 95%
[15]
  kinase still bound, per cent of control: 94%
[16]
  kinase still bound, per cent of control: 91%
[17]
  kinase still bound, per cent of control: 79%
[18]
  kinase still bound, per cent of control: 89%
[20]
  kinase still bound, per cent of control: 0.25%
[21]
  kinase still bound, per cent of control: 71%
[24]
  kinase still bound, per cent of control: 49%
[25]
  kinase still bound, per cent of control: 4.2%
[27]
  kinase still bound, per cent of control: 96%
[28]
  kinase still bound, per cent of control: 35%
[29]
  kinase still bound, per cent of control: 63%
[30]
  kinase still bound, per cent of control: 5%
[31]
  kinase still bound, per cent of control: 46%
[40]
  kinase still bound, per cent of control: 35%
[32]
  kinase still bound, per cent of control: 1%
[33]
  kinase still bound, per cent of control: 7.3%
[35]
  kinase still bound, per cent of control: 90%
[36]
  kinase still bound, per cent of control: 61%
[37]
  kinase still bound, per cent of control: 94%
[38]
  kinase still bound, per cent of control: 78%
[39]
  kinase still bound, per cent of control: 91%

## CCOc1cc(N2CCC(O)CC2)ccc1Nc1ncc2c(n1)N(C)c1ccccc1C(=O)N2C
[1]
  kinase still bound, per cent of control: 100%
[2]
  kinase still bound, per cent of control: 100%
[3]
  kinase still bound, per cent of control: 100%
[4]
  kinase still bound, per cent of control: 100%
[5]
  kinase still bound, per cent of control: 100%
[6]
  kinase still bound, per cent of control: 100%
[7]
  kinase still bound, per cent of control: 100%
[8]
  kinase still bound, per cent of control: 100%
[9]
  kinase still bound, per cent of control: 100%
[10]
  kinase still bound, per cent of control: 100%
[11]
  kinase still bound, per cent of control: 100%
[12]
  kinase still bound, per cent of control: 100%
[13]
  kinase still bound, per cent of control: 100%
[14]
  kinase still bound, per cent of control: 100%
[15]
  kinase still bound, per cent of control: 100%
[16]
  kinase still bound, per cent of control: 100%
[17]
  kinase still bound, per cent of control: 100%
[18]
  kinase still bound, per cent of control: 100%
[19]
  kinase still bound, per cent of control: 100%
[20]
  kinase still bound, per cent of control: 100%
[21]
  kinase still bound, per cent of control: 100%
[22]
  kinase still bound, per cent of control: 100%
[23]
  kinase still bound, per cent of control: 100%
[24]
  kinase still bound, per cent of control: 100%
[25]
  kinase still bound, per cent of control: 100%
[26]
  kinase still bound, per cent of control: 100%
[27]
  kinase still bound, per cent of control: 100%
[28]
  kinase still bound, per cent of control: 100%
[29]
  kinase still bound, per cent of control: 100%
[30]
  kinase still bound, per cent of control: 100%
[31]
  kinase still bound, per cent of control: 100%
[40]
  kinase still bound, per cent of control: 100%
[32]
  kinase still bound, per cent of control: 100%
[33]
  kinase still bound, per cent of control: 100%
[34]
  kinase still bound, per cent of control: 100%
[35]
  kinase still bound, per cent of control: 100%
[36]
  kinase still bound, per cent of control: 100%
[37]
  kinase still bound, per cent of control: 100%
[38]
  kinase still bound, per cent of control: 100%
